Test results: the supplement of paper PMC11061612

How the values were obtained:
Test in all cases: combination Emax (second highest fraction inhibited in the dose matrix, 72 h); higher = more inhibition; extreme values may be limits of the assay
[1] = test system: CAL-39 (Other Solid Carcinomas)
Procedure, shortened: (§1)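 Cell lines grown in DMEM/F12 or RPMI with 10% FBS were plated in 1536-well plates and held 24 hours at 37°C, 5% CO2 before 72 hours of exposure to two-drug dose matrices, with DMSO typically at 0.2%. CellTiter-Glo 2.0 luminescence gave viability, which was converted to inhibition. Vehicle wells were set to 0 and blank wells to 1. Combination Emax is the second-highest inhibition in the matrix, and Bliss excess is the observed combination effect minus the expected EA + EB − EA·EB, where EA and EB are the single-agent effects.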

[2] = test system: CS1 (Chondrosarcoma)
Procedure, shortened: as §1

[3] = test system: D-283MED (Other Solid Carcinomas)
Procedure, shortened: as §1

[4] = test system: D-392MG (Glioblastoma)
Procedure, shortened: as §1

[5] = test system: DOK (Oral Cavity Carcinoma)
Procedure, shortened: as §1

[6] = test system: EFM-192A (Breast Carcinoma)
Procedure, shortened: as §1

[7] = test system: EW-22 (Ewing's Sarcoma)
Procedure, shortened: as §1

[8] = test system: GDM-1 (Acute Myeloid Leukemia)
Procedure, shortened: as §1

[9] = test system: HCC-827 (Lung Adenocarcinoma)
Procedure, shortened: as §1

[10] = test system: HCC1143 (Breast Carcinoma)
Procedure, shortened: as §1

[11] = test system: HLE (Hepatocellular Carcinoma)
Procedure, shortened: as §1

[12] = test system: HuO9 (Osteosarcoma)
Procedure, shortened: as §1

[13] = test system: JHH-6 (Hepatocellular Carcinoma)
Procedure, shortened: as §1

[14] = test system: MSTO-211H (Mesothelioma)
Procedure, shortened: as §1

[15] = test system: NCI-H1688 (Small Cell Lung Carcinoma)
Procedure, shortened: as §1

[16] = test system: PA-TU-8902 (Pancreatic Carcinoma)
Procedure, shortened: as §1

[17] = test system: SK-MEL-1 (Melanoma)
Procedure, shortened: as §1

[18] = test system: SNG-M (Endometrial Carcinoma)
Procedure, shortened: as §1

[19] = test system: YT (Other Blood Carcinomas)
Procedure, shortened: as §1

[20] = test system: SW948 (Colorectal Carcinoma)
Procedure, shortened: as §1

| SMILES | combination Emax [1] | combination Emax [2] | combination Emax [3] | combination Emax [4] | combination Emax [5] | combination Emax [6] | combination Emax [7] | combination Emax [8] | combination Emax [9] | combination Emax [10] | combination Emax [11] | combination Emax [12] | combination Emax [13] | combination Emax [14] | combination Emax [15] | combination Emax [16] | combination Emax [17] | combination Emax [18] | combination Emax [19] | combination Emax [20] |
| --- | --- | --- | --- | --- | --- | --- | --- | --- | --- | --- | --- | --- | --- | --- | --- | --- | --- | --- | --- | --- |
| CCN(CCO)CCCOc1ccc2c(Nc3cc(CC(=O)Nc4cccc(F)c4)[nH]n3)ncnc2c1 [AZD2811] + C[C@@H]1COCCN1C2=NC(=NC(=C2)C3(CC3)[S@](=N)(=O)C)C4=C5C=CNC5=NC=C4 [AZD6738] (first compound max 1 µM, 7x7, partner max 10 µM) | 0.467 | 0.632 | 1 | 0.392 | 0.44 | 0.233 | 0.894 | 0.823 | 0.493 | 0.824 | 0.76 | 0.815 | 0.266 | 0.727 | 0.271 | 0.216 | 0.331 | 0.932 | 0.76 |  |
| CCN(CCO)CCCOc1ccc2c(Nc3cc(CC(=O)Nc4cccc(F)c4)[nH]n3)ncnc2c1 [AZD2811] + O=C(c1cc(Cc2n[nH]c(=O)c3ccccc23)ccc1F)N1CCN(C(=O)C2CC2)CC1 [Olaparib] (first compound max 1 µM, 7x7, partner max 10 µM) | 0.324 | 0.386 | 0.817 | 0.174 | 0.375 | 0.212 | 0.949 | 0.818 | 0.236 | 0.372 | 0.409 | 0.293 | 0.241 | 0.35 | 0.196 | 0.187 | 0.289 | 0.25 | 0.309 |  |
| C[C@@H]1COCCN1c1cc(C2([S@](C)(=N)=O)CC2)nc(-c2ccnc3[nH]ccc23)n1 [AZD6738] + O=C(c1cc(Cc2n[nH]c(=O)c3ccccc23)ccc1F)N1CCN(C(=O)C2CC2)CC1 [Olaparib] (first compound max 10 µM, 7x7, partner max 10 µM) | 0.526 | 0.67 | 1 | 0.38 | 0.369 | 0.32 | 0.942 | 0.624 | 0.498 | 0.701 | 0.981 | 0.857 | 0.263 | 0.705 | 0.203 | 0.195 | 0.312 | 0.898 | 0.75 |  |
| Cc1cc2ncnn2cc1Nc1ncc2c(n1)n(C1CCOCC1)c(=O)n2C [AZD7648] + O=C(c1cc(Cc2n[nH]c(=O)c3ccccc23)ccc1F)N1CCN(C(=O)C2CC2)CC1 [Olaparib] (first compound max 10 µM, 7x7, partner max 10 µM) | 0.174 | 0.221 | 0.639 | 0.144 | 0.152 | 0.278 | 0.918 | 0.628 | 0.199 | 0.148 | 0.252 | 0.441 | 0.158 | 0.218 | 0.135 | 0.112 | 0.24 | 0.143 | 0.575 |  |
| CS(=O)(=O)CCNCc1ccc(-c2ccc3ncnc(Nc4ccc(OCc5cccc(F)c5)c(Cl)c4)c3c2)o1 [Lapatinib] + Cn1cnc2c(F)c(Nc3ccc(Br)cc3Cl)c(C(=O)NOCCO)cc21 [Selumetinib] (first compound max 10 µM, 7x7, partner max 10 µM) | 1 | 0.554 | 0.935 | 0.396 | 0.933 |  | 0.242 |  |  |  | 0.234 |  |  | 0.337 |  |  | 0.838 | 0.43 | 0.725 | 0.774 |
| CS(=O)(=O)CCNCc1ccc(-c2ccc3ncnc(Nc4ccc(OCc5cccc(F)c5)c(Cl)c4)c3c2)o1 [Lapatinib] + NC1(c2ccc(-c3nc4ccn5c(=O)[nH]nc5c4cc3-c3ccccc3)cc2)CCC1 [MK-2206] (first compound max 10 µM, 7x7, partner max 10 µM) | 0.999 | 0.765 | 0.96 | 0.189 | 0.935 |  | 0.868 |  |  | 0.89 | 0.597 | 0.995 |  | 0.126 | 0.819 | 0.72 | 0.888 | 0.667 | 0.945 | 0.655 |
| CCc1c2c(nc3ccc(O)cc13)-c1cc3c(c(=O)n1C2)COC(=O)[C@]3(O)CC [SN-38] + O=C(c1cc(Cc2n[nH]c(=O)c3ccccc23)ccc1F)N1CCN(C(=O)C2CC2)CC1 [Olaparib] (first compound max 0.3 µM, 7x7, partner max 10 µM) | 0.979 | 0.846 | 0.947 | 0.435 | 0.587 |  | 0.947 |  | 0.497 |  | 0.945 | 0.996 | 0.42 | 0.677 | 0.534 | 0.428 | 0.516 | 0.62 | 0.895 | 0.647 |
| Cc1nc(-c2cn3c(n2)-c2ccc(-c4cnn(C(C)(C)C(N)=O)c4)cc2OCC3)n(C(C)C)n1 [Taselisib] + O=C(Nc1ccc2[nH]nc(-c3ccncc3)c2c1)[C@@H]1CCN(CC(=O)N2CCN(c3ccc(-c4ncccn4)cc3)CC2)C1 [SCH772984] (first compound max 10 µM, 7x7, partner max 5 µM) | 1 | 0.744 | 0.775 | 0.799 | 1 |  | 0.719 |  |  |  | 0.33 |  |  | 0.806 |  |  | 0.893 | 0.76 | 0.597 | 0.964 |
